Substitutions are numbered along the chain they refer to. Entries after “also recorded” stand apart in the source; their conditions may differ.
Key:
LRRC8 channel [1] = biological target: T1, LRRC8 channel (Homo sapiens, UniProt Q8IWT6); experiment: swell-activated currents recorded from HEK cells; assay type: cell-based
T1 construct: endogenous in cells; host or cells: HEK cells
T1 sequence (Q8IWT6 1-810): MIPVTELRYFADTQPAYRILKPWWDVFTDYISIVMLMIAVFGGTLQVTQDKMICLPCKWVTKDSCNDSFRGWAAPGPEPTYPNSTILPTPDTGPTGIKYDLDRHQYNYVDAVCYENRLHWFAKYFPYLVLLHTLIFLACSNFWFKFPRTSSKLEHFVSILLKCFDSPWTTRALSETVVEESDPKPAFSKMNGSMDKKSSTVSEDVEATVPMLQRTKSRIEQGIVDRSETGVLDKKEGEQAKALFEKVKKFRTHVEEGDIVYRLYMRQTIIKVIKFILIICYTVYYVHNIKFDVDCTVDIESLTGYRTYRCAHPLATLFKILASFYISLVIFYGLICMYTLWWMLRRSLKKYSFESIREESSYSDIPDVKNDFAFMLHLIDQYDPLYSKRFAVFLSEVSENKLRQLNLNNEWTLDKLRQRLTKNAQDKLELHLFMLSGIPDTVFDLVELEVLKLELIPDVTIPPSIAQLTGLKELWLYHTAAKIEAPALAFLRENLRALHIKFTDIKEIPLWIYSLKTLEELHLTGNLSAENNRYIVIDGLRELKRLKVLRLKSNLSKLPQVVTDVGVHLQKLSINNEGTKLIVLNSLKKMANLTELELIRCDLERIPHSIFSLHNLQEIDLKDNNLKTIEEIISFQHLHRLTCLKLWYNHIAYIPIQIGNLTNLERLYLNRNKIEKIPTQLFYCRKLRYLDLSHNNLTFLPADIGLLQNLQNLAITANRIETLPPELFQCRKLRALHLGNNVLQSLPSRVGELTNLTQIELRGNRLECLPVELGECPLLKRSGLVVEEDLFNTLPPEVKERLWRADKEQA
Excerpt: FIG. 25A-25D depict how congeners SN-418 and SN-418C are potent inhibitors of swell-activated currents recorded from HEK cells. FIG. 25A depicts the chemical structure of SN-418. FIG. 25B depicts the chemical structure of SN-418C. FIG. 25C depicts currents in the presence of varying concentrations of SN-418 and SN-401 normalized to the currents activated in hypotonic solution alone. […] FIG. 25D depicts currents in the presence of varying concentrations of SN-418C and SN-401 normalized to the currents activated in hypotonic solution alone.
Examples of these are SN-418 and SN-418C (FIG. 25A&25B), which include modification in the alkyl chain+/−cyclopropyl group to increase LRRC8 channel inhibition ˜10-fold over SN-401 (FIG. 25C&25D). SN-418C was then tested for antiplatelet activity in vitro.

LRRC8 channel [2] = biological target: T2, LRRC8 channel (Mus musculus, UniProt Q80WG5); experiment: perforated patch-clamp of ICl,SWELL in freshly isolated murine megakaryocytes; assay type: cell-based; set-up: inhibition of ICI,SWELL currents: dose or concentration left out as unconfirmed; conditions: for inhibition of swell-activated current: murine MK, hypotonic solution (HYPO, 205 mOsm), 10 μM
T2 construct: endogenous in cells; host or cells: freshly isolated murine megakaryocytes (WT = LRRC8A fl/fl littermate controls)
T2 sequence (Q80WG5 1-810): T1 sequence (Q8IWT6 1-810) with P75S, G76S, I86V, I276A, A591V, I715V, T722A, N792S
Excerpt: FIG. 17A depicts a murine MK perforated patch-clamp. FIG. […] FIG. 17C depicts the current-voltage relationship in WT MK. FIG. 17D depicts the current-voltage relationship in cKO MK. FIG. 17E depicts mean outward and inward currents at +100 mV and −100 mV respectively, in WT, WT+SN401, and cKO MK. * p<0.05;** p<0.01.
To validate the biology implied by the human genetic studies, megakaryocyte (MK)-specific LRRC8A conditional knockout (cKO) mice were generated by crossing our LRRC8A^fl/fl mouse (SWELL1^fl/fl)^35-31 with the platelet factor4-driven Cre recombinase mouse (Pf4-Cre) to generate LRRC8A^fl/fl;Pf4-cre+/− (cKO) and littermate control LRRC8A^fl/fl mice (WT). Complete deletion of LRRC8A protein from cKO mouse platelets was confirmed while maintaining expression of the platelet marker b3 integrin (FIG. 16). To confirm that LRRC8 proteins form functional VRAC/ICI,SWELL channels in platelets, ICI,SWELL was measured in freshly isolated murine MK using the perforated patch configuration of the patch-clamp technique (FIG. 17A). […] This hypotonically-activated, swell-activated current is entirely abolished in cKO MKs (FIG. 17C-17D), confirming the SN-401-inhibited current in murine MKs to be entirely LRRC8A mediated.

human platelets = experiment: platelet adhesion to collagen in microfluidic device, human whole blood; assay type: cell-based; conditions: 10 μM, collagen-coated microfluidic chamber, vs vehicle (DMSO)
Description: Human blood from 4 donors was collected into heparin anticoagulant, pooled and incubated with the fluorescently label DiOC6 (3,39-dihexyloxacarbocyanine iodide; Invitrogen) and either 10 μM SN-401 (DCPIB) or vehicle (DMSO) for 10 minutes. The whole blood was perfused through a polydimethysiloxane (PDMS) microfluidic device plasma bonded to a glass slide patterned with bovine type 1 collagen at a constant upstream pressure for 5 minutes followed by PBS for 5 minutes. Platelet accumulation was captured using an Olympus IX83 inverted microscope and the surface area coverage of platelets quantified using ImageJ.
FIG. 23A-23B depict how SN-401 impairs human platelet adhesion under physiologic shear-flow conditions in collagen-coated microfluidic flow chambers. n=4 blood draws from 4 subjects on 2 separate days. FIG. 23A depicts the percentage of surface area covered by adherent platelets over time in human whole-blood treated with vehicle or 10 μM SN-401. p=0.1 for 2-way Anova. FIG. 23B depicts the area under the curve (AUC) calculated from FIG. 23A for vehicle and SN-401. p=0.1 for t-test.

C57BL/6 mice = experiment: tail wound thrombosis / tail bleeding assay; assay type: in vivo, mouse
Description: To determine if acute inhibition of LRRC8 channel activity affected platelet function in vivo, vehicle or the known LRRC8 channel inhibitor SN-401 (DCPIB) was administered to 25 to 30-week old C57BL/6 mice by IP injection, and in vivo thrombosis was quantified using an assay for tail wound thrombosis. Specifically, 20 minutes following IP injection with vehicle or 10 mg/kg SN-401, mouse tails were amputated 5 mm from the tail tip, placed in normal saline at 37° C. for 15 minutes, and the relative blood loss during that period was quantified by estimating the hemoglobin concentration in the normal saline by measuring light absorbance at 550 nm.
FIG. 24 depicts how SN-401 treatment increases mouse tail bleeding. Mice were pretreated with Vehicle or SN401 (10 mg/kg i.p×1) and tail bleeding quantified after 15 minutes by measuring absorbance of hemoglobin at 550 nm. * p<0.05.
To determine if acute inhibition of LRRC8 channel activity affected platelet function in vivo, vehicle or the known LRRC8 channel inhibitor SN-401 (DCPIB) was administered to 25 to 30-week old C57BL6 mice by IP injection, and in vivo thrombosis was quantified using an assay for tail wound thrombosis. […]

MEG01 cells = experiment: swell-activated currents in human MK cell line MEG01; assay type: cell-based; conditions: WT MEG01 cells, hypotonic solution (HYPO, 210 mOsm), 10 μM
Description: FIG. 29A-29C depicts how the human MK cell line, MEG01, had robust, SN-4XX-inhibited, swell-activated currents. FIG. 29A depicts current density over time in response to swelling with hypotonic solution (HYPO, 210 mOsm), and inhibition by 10 μM SN401 in WT MEG01 cells. FIG. 29B depicts the current-voltage relationship in WT MEG01 cells in response to HYPO and inhibition by 10 μM SN401. FIG. 29C depicts the current-voltage relationship in WT MEG01 cells in response to HYPO and inhibition by 3 μM SN418c.

## CCCCC1(C2CCCC2)Cc2cc(OCCCC(=O)O)c(Cl)c(Cl)c2C1=O (stereo not drawn) [SN-401, 4-((2-Butyl-6,7-dichloro-2-cyclopentyl-1-oxo-2,3-dihydro-1H-inden-5-yl)oxy)butanoic acid]
LRRC8 channel [1]
  IC50: 4 µM
LRRC8 channel [2]; WT MK, hypotonic swelling
  inhibition of ICI,SWELL currents: fully inhibited
LRRC8 channel [2]
  inhibition of swell-activated current: robust inhibition
LRRC8 channel [2]; listed as SN401
  inhibition of swell-activated current: inhibition
Human platelets
  adhesion of human platelets to collagen (surface area coverage): significantly reduced; also recorded: significantly inhibited; also recorded: impairs
C57BL/6 mice; 10 mg/kg IP, 20 minutes before tail amputation, 15 minutes, absorbance at 550 nm
  mean amount of tail blood loss relative to vehicle: 4 fold
C57BL/6 mice; 10 mg/kg i.p. x1, hemoglobin absorbance at 550 nm after 15 minutes
  tail bleeding: increases
MEG01 cells
  inhibition of swell-activated (ICI,SWELL) current: completely inhibited
MEG01 cells; listed as SN401
  inhibition of swell-activated (ICI,SWELL) current: inhibition

Source: patent US20250339392A1, “THE USE OF LRRC8 PROTEIN […] PREVENT AND TREAT CARDIOVASCULAR DISEASE” (Washington University, priority 2022, published 2025)
